According to the supplement of paper PMC11451515:

Key:
Conditions in all cases: 48 h
SEM cells [1] = assay: cell viability relative to DMSO control; higher = less cytotoxic
In short: (§1)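 NOMO1 or SEM cells were plated at 500 cells/well and P12-Ichikawa cells at 1000 cells/well in 1536-well plates (5 μl), after each leukemia line had been adapted for at least four passages in each medium. Pin dosing delivered library compounds in DMSO at 11 threefold concentrations, 47 μM to 0.79 nM. CellTiter-Glo One luminescence was read after 48 h at 37°C. Viability is reported as a per-plate percentage of DMSO wells, with cell-free wells as background.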

NOMO1 [2] = assay: as above
In short: as §1

P12-Ichikawa [3] = assay: as above
In short: as §1

NOMO1 [4] = assay: AUC of viability dose-response curve (% viability x log10 dose units); higher = less sensitive
In short: (§2)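 Area under the curve was integrated by trapezoidal rule from a log-logistic fit of normalised viability, with curves exceeding full viability scaled and quality-control failures removed. The fit had four parameters over log10 doses. Viability came from CellTiter-Glo One luminescence, normalised per plate to DMSO and cell-free wells, after leukemia cells adapted to each medium (500 or 1000 cells/well, 1536-well plates) were exposed to library compounds in DMSO for 48 h at 37°C. The 11 threefold doses ran from 47 μM to 0.79 nM.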

P12-Ichikawa [5] = assay: as above
In short: as §2

SEM cells [6] = assay: as above
In short: as §2

N#CC1(c2cccc(C(=O)Nc3cc(Oc4ccc5nc(NC(=O)C6CC6)sc5n4)ccc3F)c2Cl)CC1
cell viability [%]
Conditions | NOMO1 [2] | P12-Ichikawa [3] | SEM cells [1]
HPLM + 10% dialyzed FBS, 0.000781 µM | 105 | 114 | 93.5
HPLM + 10% dialyzed FBS, 0.00234 µM | 121 | 111 | 95.8
HPLM + 10% dialyzed FBS, 0.00702 µM | 114 | 115 | 106
HPLM + 10% dialyzed FBS, 0.0211 µM | 113 | 115 | 93.9
HPLM + 10% dialyzed FBS, 0.0632 µM | 119 | 112 | 117
HPLM + 10% dialyzed FBS, 0.19 µM | 93.8 | 108 | 118
HPLM + 10% dialyzed FBS, 0.569 µM | 91 | 97 | 102
HPLM + 10% dialyzed FBS, 1.71 µM | 56.6 | 72.8 | 94.9
HPLM + 10% dialyzed FBS, 5.12 µM | 39.2 | 66.7 | 82.1
HPLM + 10% dialyzed FBS, 15.4 µM | 18.2 | 29 | 46.7
HPLM + 10% dialyzed FBS, 46.1 µM | 18.2 | 21.1 | 30.6
RPMI 5 mM glucose + 10% FBS, 0.000781 µM | 115 | 110 | 75.1
RPMI 5 mM glucose + 10% FBS, 0.00234 µM | 113 | 114 | 89
RPMI 5 mM glucose + 10% FBS, 0.00702 µM | 107 | 110 | 90.5
RPMI 5 mM glucose + 10% FBS, 0.0211 µM | 100 | 108 | 74.5
RPMI 5 mM glucose + 10% FBS, 0.0632 µM | 103 | 108 | 84.1
RPMI 5 mM glucose + 10% FBS, 0.19 µM | 105 | 106 | 68.2
RPMI 5 mM glucose + 10% FBS, 0.569 µM | 104 | 81.2 | 74.5
RPMI 5 mM glucose + 10% FBS, 1.71 µM | 76.7 | 74.7 | 59.1
RPMI 5 mM glucose + 10% FBS, 5.12 µM | 48.8 | 59.3 | 39.4
RPMI 5 mM glucose + 10% FBS, 15.4 µM | 10.7 | 34.3 | 17.4
RPMI 5 mM glucose + 10% FBS, 46.1 µM | 10.6 | 13.4 | 17.6
RPMI 5 mM glucose + 10% dialyzed FBS, 0.000781 µM | 118 | 105 | 101
RPMI 5 mM glucose + 10% dialyzed FBS, 0.00234 µM | 123 | 113 | 106
RPMI 5 mM glucose + 10% dialyzed FBS, 0.00702 µM | 96.5 | 118 | 106
RPMI 5 mM glucose + 10% dialyzed FBS, 0.0211 µM | 98.2 | 117 | 105
RPMI 5 mM glucose + 10% dialyzed FBS, 0.0632 µM | 98.7 | 115 | 105
RPMI 5 mM glucose + 10% dialyzed FBS, 0.19 µM | 90.6 | 115 | 102
RPMI 5 mM glucose + 10% dialyzed FBS, 0.569 µM | 72.9 | 90.5 | 108
RPMI 5 mM glucose + 10% dialyzed FBS, 1.71 µM | 70.1 | 69 | 83.2
RPMI 5 mM glucose + 10% dialyzed FBS, 5.12 µM | 53.9 | 57.6 | 69.6
RPMI 5 mM glucose + 10% dialyzed FBS, 15.4 µM | 16.9 | 38.7 | 37.1
RPMI 5 mM glucose + 10% dialyzed FBS, 46.1 µM | 15.6 | 23.7 | 26.3

AUC of viability dose-response curve
Conditions | HPLM + 10% dialyzed FBS | RPMI 5 mM glucose + 10% FBS | RPMI 5 mM glucose + 10% dialyzed FBS
NOMO1 [4] | 344 | 370 | 327
P12-Ichikawa [5] | 372 | 362 | 369

CC(=O)N(O)CCCCCNC(=O)CCC(=O)N(O)CCCCCNC(=O)CCC(=O)N(O)CCCCCN.C[S+](=O)([O-])O
cell viability [%]
Conditions | NOMO1 [2] | P12-Ichikawa [3] | SEM cells [1]
HPLM + 10% dialyzed FBS, 0.000781 µM | 90.9 | 93.5 | 74.3
HPLM + 10% dialyzed FBS, 0.00234 µM | 83.7 | 76.5 | 86.8
HPLM + 10% dialyzed FBS, 0.00702 µM | 81.8 | 40.7 | 77.7
HPLM + 10% dialyzed FBS, 0.0211 µM | 32.6 | 10.3 | 26.2
HPLM + 10% dialyzed FBS, 0.0632 µM | 34 | 11 | 25.3
HPLM + 10% dialyzed FBS, 0.19 µM | 34.6 | 11.2 | 18.8
HPLM + 10% dialyzed FBS, 0.569 µM | 28.3 | 10.8 | 22.5
HPLM + 10% dialyzed FBS, 1.71 µM | 27.2 | 9.88 | 18.2
HPLM + 10% dialyzed FBS, 5.12 µM | 27.7 | 9.31 | 23.9
HPLM + 10% dialyzed FBS, 15.4 µM | 23.6 | 9.06 | 23.2
HPLM + 10% dialyzed FBS, 46.1 µM | 21.5 | 9.61 | 23.2
RPMI 5 mM glucose + 10% FBS, 0.000781 µM | 88.8 | 98.4 | 96.8
RPMI 5 mM glucose + 10% FBS, 0.00234 µM | 97.4 | 110 | 54.4
RPMI 5 mM glucose + 10% FBS, 0.00702 µM | 115 | 99 | 30.4
RPMI 5 mM glucose + 10% FBS, 0.0211 µM | 45.7 | 99 | 18.5
RPMI 5 mM glucose + 10% FBS, 0.0632 µM | 28.1 | 54.9 | 20.6
RPMI 5 mM glucose + 10% FBS, 0.19 µM | 17.6 | 13.4 | 20.9
RPMI 5 mM glucose + 10% FBS, 0.569 µM | 24.9 | 13.2 | 20.6
RPMI 5 mM glucose + 10% FBS, 1.71 µM | 20.9 | 11.6 | 14.4
RPMI 5 mM glucose + 10% FBS, 5.12 µM | 16.4 | 16.4 | 18.5
RPMI 5 mM glucose + 10% FBS, 15.4 µM | 10.6 | 11.4 | 15.9
RPMI 5 mM glucose + 10% FBS, 46.1 µM | 12.5 | 12.3 | 16.3
RPMI 5 mM glucose + 10% dialyzed FBS, 0.000781 µM | 86 | 97.8 | 81
RPMI 5 mM glucose + 10% dialyzed FBS, 0.00234 µM | 105 | 108 | 82.9
RPMI 5 mM glucose + 10% dialyzed FBS, 0.00702 µM | 113 | 114 | 94.4
RPMI 5 mM glucose + 10% dialyzed FBS, 0.0211 µM | 106 | 99.2 | 30.2
RPMI 5 mM glucose + 10% dialyzed FBS, 0.0632 µM | 79.1 | 79.9 | 25.4
RPMI 5 mM glucose + 10% dialyzed FBS, 0.19 µM | 26.3 | 18.4 | 19.3
RPMI 5 mM glucose + 10% dialyzed FBS, 0.569 µM | 26.4 | 20.7 | 18.7
RPMI 5 mM glucose + 10% dialyzed FBS, 1.71 µM | 21.4 | 16.7 | 20.2
RPMI 5 mM glucose + 10% dialyzed FBS, 5.12 µM | 23.8 | 15.2 | 19.3
RPMI 5 mM glucose + 10% dialyzed FBS, 15.4 µM | 18.2 | 16.1 | 23.6
RPMI 5 mM glucose + 10% dialyzed FBS, 46.1 µM | 17.4 | 22 | 23.7

AUC of viability dose-response curve
Conditions | HPLM + 10% dialyzed FBS | RPMI 5 mM glucose + 10% FBS | RPMI 5 mM glucose + 10% dialyzed FBS
NOMO1 [4] | 204 | 199 | 261
P12-Ichikawa [5] | 115 | 225 | 249

C[C@@H]1C[C@@H]([C@H](O)CC2CC(=O)NC(=O)C2)C(=O)[C@@H](C)C1
AUC of viability dose-response curve
Conditions | NOMO1 [4] | P12-Ichikawa [5] | SEM cells [6]
HPLM + 10% dialyzed FBS | 315 | 312 | 279
RPMI 5 mM glucose + 10% FBS | 337 | 288 | 268
RPMI 5 mM glucose + 10% dialyzed FBS | 323 | 299 | 295

Cc1oncc1C(=O)Nc1ccc(C(F)(F)F)cc1
AUC of viability dose-response curve
Conditions | NOMO1 [4] | P12-Ichikawa [5] | SEM cells [6]
HPLM + 10% dialyzed FBS | 458 | 461 | 471
RPMI 5 mM glucose + 10% FBS | 461 | 454 | 468
RPMI 5 mM glucose + 10% dialyzed FBS | 422 | 459 | 465

O=C1NC(=O)/C(=C/c2ccc3c(c2)OC(F)(F)O3)S1
AUC of viability dose-response curve
Conditions | NOMO1 [4] | P12-Ichikawa [5] | SEM cells [6]
HPLM + 10% dialyzed FBS | 465 | 462 | 464
RPMI 5 mM glucose + 10% FBS | 446 | 463 | 466
RPMI 5 mM glucose + 10% dialyzed FBS | 457 | 440 | 466

Nc1ncnc2c1ncn2[C@@H]1O[C@H](CO)[C@@H](O)[C@H]1O
AUC of viability dose-response curve
Conditions | HPLM + 10% dialyzed FBS | RPMI 5 mM glucose + 10% FBS | RPMI 5 mM glucose + 10% dialyzed FBS
NOMO1 [4] | 388 | 402 | 397
SEM cells [6] | 462 | 454 | 463
